Results reported in article PMC6272564, “Synthesis and Biological Evaluation of Novel 6-Hydroxy-benzo[d][1,3]oxathiol-2-one Schiff Bases as Potential Anticancer Agents” (Molecules, 2015).

How the values were obtained:
[1] = test system: HCT-116; experiment: MTT cytotoxicity assay, HCT-116 colon cancer cells; assay type: cell-based; settings: Homo sapiens, IC50 with 95% confidence interval, triplicate, 72 h incubation
Description: (§1) In vitro anticancer activity of compounds 2, 3 and 4a–r was evaluated against three human cancer cell lines in comparison to doxorubicin by using MTT assay.
(§2) Compounds (0.312–20 μM) were tested for cytotoxic activity against three cancer cell lines: ACP-03 (gastric), SKMEL-19 (melanoma) and HCT-116 (colon). All cell lines were maintained in DMEM medium supplemented with 10% fetal bovine serum, 2 mM glutamine, 100 U/mL penicillin, and […] streptomycin at 37 °C with 5% CO2. Each compound was dissolved in DMSO and diluted with water to obtain a concentration of 20 μM. They were incubated with the cells for 72 h. The negative control received the same amount of DMSO (0.005% in the highest concentration). Doxorrubicin was used as a positive control. The cell viability was determined by reduction of the yellow dye 3-(4,5-dimethyl-2-thiazol)-2,5-diphenyl-2H-tetrazolium bromide (MTT) to a blue formazan product after 48 h as described by Mosmann.

[2] = test system: ACP-03; experiment: MTT cytotoxicity assay, ACP-03 gastric cancer cells; assay type: cell-based, human; settings: IC50 with 95% confidence interval, triplicate, 72 h incubation
Description: as §1, §2

[3] = test system: SKMEL-19; experiment: MTT cytotoxicity assay, SKMEL-19 melanoma cells; assay type: cell-based, human; settings: IC50 with 95% confidence interval, triplicate, 72 h incubation
Description: as §1, §2

[4] = Cell membrane disruption (hemolysis) of mouse erythrocytes; assay type: cell-based; settings: mouse erythrocytes (2% suspension), 2% mouse erythrocyte suspension, room temperature, tested 1.5 to 200 μg/mL, lysis 50% of Triton X-100
Description: The mechanical stability of red blood cells is a good parameter for in vitro screening of unspecific cytotoxicity, since the membrane of erythrocyte can suffer significant changes in its structural properties. In order to verify whether the cytotoxicity of the compounds was linked to the membrane disruption, the ability to induce lysis of mouse erythrocytes was investigated, and no membrane damage was found for all tested compounds (EC50 > 200 μg/mL).
The test was performed in 96-well plates using a 2% mouse erythrocyte suspension in 0.85% NaCl containing 10 mM CaCl2. The compounds diluted as mentioned above were tested at concentrations ranging from 1.5 to 200 μg/mL. After incubation at room temperature for 30 min and centrifugation, the supernatant was removed and the liberated hemoglobin was measured spectrophotometrically at 540 nm. DMSO was used as a negative control and Triton X-100 (1%) was used as positive control. EC50 is the calculated effective dose that induced lysis on 50% that of the Triton X-100 [37].

| melting point | SMILES | IC50 [1] | IC50 ([2]; Homo sapiens, 72 h) | IC50 ([3]; Homo sapiens, SK-MEL19, 72 h) | EC50 at 30 min [4] | IC50 [2] | IC50 [3] |
| --- | --- | --- | --- | --- | --- | --- | --- |
| 232 to 233 °C | O=c1oc2cc(O)c(/N=C/c3ccccc3)cc2s1 [Compound 4h, (E)-5-(Benzylideneamino)-6-hydroxybenzo[d][1,3]oxathiol-2-one] | > 10 µM | > 10 µM | > 10 µM | > 200 µg/mL | – | – |
| 221 to 223 °C | O=c1oc2cc(O)c(/N=C/c3ccc(Cl)cc3Cl)cc2s1 [Compound 4g, (E)-5-(2,4-Dichlorobenzylideneamino)-6-hydroxybenzo[d][1,3]oxathiol-2-one] | > 10 µM | > 10 µM | > 10 µM | > 200 µg/mL | – | – |
| 244 to 246 °C | O=c1oc2cc(O)c(/N=C/c3cccc(O)c3O)cc2s1 [Compound 4l, (E)-5-(2,3-Dihydroxybenzylideneamino)-6-hydroxybenzo[d][1,3]oxathiol-2-one] | > 10 µM | > 10 µM | > 10 µM | > 200 µg/mL | – | – |
| 284 to 285 °C (dec.) | O=c1oc2cc(O)c(/N=C/c3ccc(O)cc3O)cc2s1 [Compound 4m, (E)-5-(2,4-Dihydroxybenzylideneamino)-6-hydroxybenzo[d][1,3]oxathiol-2-one] | > 10 µM | > 10 µM | 9.4 µM | > 200 µg/mL | – | – |
| 250 to 252 °C | O=c1oc2cc(O)c(/N=C/c3cc(Br)ccc3O)cc2s1 [Compound 4p, (E)-5-(5-Bromo-2-hydroxybenzylideneamino)-6-hydroxybenzo[d][1,3]oxathiol-2-one] | > 10 µM | > 10 µM | > 10 µM | > 200 µg/mL | – | – |
| 201 to 203 °C | O=c1oc2cc(O)c(/N=C/c3ccc(-c4ccccn4)cc3)cc2s1 [Compound 4q, (E)-6-Hydroxy-5-(4-(pyridin-2-yl)benzylideneamino)benzo[d][1,3]oxathiol-2-one] | > 10 µM | > 10 µM | > 10 µM | > 200 µg/mL | – | – |
| 232 to 233 °C | O=c1oc2cc(O)c(/N=C/c3ccc4c(c3)OCO4)cc2s1 [Compound 4r, (E)-5-(Benzo[d][1,3]dioxol-5-ylmethyleneamino)-6-hydroxybenzo[d][1,3]oxathiol-2-one] | > 10 µM | > 10 µM | > 10 µM | > 200 µg/mL | – | – |
| 199 to 201 °C | CN(C)c1ccc(/C=N/c2cc3sc(=O)oc3cc2O)cc1 [Compound 4i, (E)-5-(4-(Dimethylamino)benzylideneamino)-6-hydroxybenzo[d][1,3]oxathiol-2-one] | > 10 µM | > 10 µM | > 10 µM | > 200 µg/mL | – | – |
| 252 to 253 °C | O=c1oc2cc(O)c(/N=C/c3ccccc3O)cc2s1 [Compound 4k, (E)-6-Hydroxy-5-(2-hydroxybenzylideneamino)benzo[d][1,3]oxathiol-2-one] | > 10 µM | > 10 µM | > 10 µM | > 200 µg/mL | – | – |
| 261 to 263 °C | O=c1oc2cc(O)c(/N=C/c3cc(O)ccc3O)cc2s1 [Compound 4n, (E)-5-(2,5-Dihydroxybenzylideneamino)-6-hydroxybenzo[d][1,3]oxathiol-2-one] | > 10 µM | > 10 µM | 5.6 µM | > 200 µg/mL | – | – |
| 177 to 178 °C | COc1ccc(/C=N/c2cc3sc(=O)oc3cc2O)cc1 [Compound 4j, (E)-6-Hydroxy-5-(4-methoxybenzylideneamino)benzo[d][1,3]oxathiol-2-one] | > 10 µM | > 10 µM | > 10 µM | > 200 µg/mL | – | – |
| 293 to 294 °C | O=c1oc2cc(O)c(/N=C/c3cc([N+](=O)[O-])ccc3O)cc2s1 [Compound 4o, (E)-6-Hydroxy-5-(2-hydroxy-5-nitrobenzylideneamino)benzo[d][1,3]oxathiol-2-one] | > 10 µM | > 10 µM | < 5 µM | > 200 µg/mL | – | 2.8 µM |

The remaining lines, values behind:

| SMILES | melting point | IC50 [1] | IC50 ([2]; Homo sapiens, 72 h) | IC50 ([3]; Homo sapiens, SK-MEL19, 72 h) | EC50 at 30 min [4] | IC50 [2] | IC50 [3] |
| --- | --- | --- | --- | --- | --- | --- | --- |
| O=c1oc2cc(O)c(/N=C/c3cccc(Br)c3)cc2s1 [Compound 4e, (E)-5-(3-Bromobenzylideneamino)-6-hydroxybenzo[d][1,3]oxathiol-2-one] | 179 to 180 °C | > 10 µM | > 10 µM | > 10 µM | > 200 µg/mL | – | – |
| COc1cccc2c1C(=O)c1c(O)c3c(c(O)c1C2=O)C[C@@](O)(C(=O)CO)C[C@@H]3O[C@H]1C[C@H](N)[C@H](O)[C@H](C)O1 [Dox, Doxorubicin, reference compound] | – | 0.1 µM | 0.274 µM | 0.045 µM | > 200 µg/mL | – | – |
| O=c1oc2cc(O)c(/N=C/c3ccc(Cl)cc3)cc2s1 [Compound 4f, (E)-5-(4-Chlorobenzylideneamino)-6-hydroxybenzo[d][1,3]oxathiol-2-one] | 210 to 212 °C | > 10 µM | > 10 µM | > 10 µM | > 200 µg/mL | – | – |
| O=c1oc2cc(O)c(/N=C/c3cccc([N+](=O)[O-])c3)cc2s1 [Compound 4c, (E)-6-Hydroxy-5-(3-nitrobenzylideneamino)benzo[d][1,3]oxathiol-2-one] | 220 to 222 °C | > 10 µM | > 10 µM | > 10 µM | > 200 µg/mL | – | – |
| Nc1cc2sc(=O)oc2cc1O [Compound 3, 5-Amino-6-hydroxybenzo[d][1,3]oxathiol-2-one] | 194 to 195 °C | > 10 µM | > 10 µM | > 10 µM | > 200 µg/mL | – | – |
| O=c1oc2cc(O)c(/N=C/c3ccc(Br)cc3)cc2s1 [Compound 4d, (E)-5-(4-Bromobenzylideneamino)-6-hydroxybenzo[d][1,3]oxathiol-2-one] | 211 to 213 °C | > 10 µM | > 10 µM | > 10 µM | > 200 µg/mL | – | – |
| N#Cc1ccc(/C=N/c2cc3sc(=O)oc3cc2O)cc1 [Compound 4a, (E)-4-((6-Hydroxy-2-oxobenzo[d][1,3]oxathiol-5-ylimino)methyl)benzonitrile] | 261 to 263 °C | > 10 µM | > 10 µM | > 10 µM | > 200 µg/mL | – | – |
| O=c1oc2cc(O)c([N+](=O)[O-])cc2s1 [Compound 2, 6-Hydroxy-5-nitrobenzo[d][1,3]oxathiol-2-one] | 180 to 182 °C | > 10 µM | > 10 µM | > 10 µM | > 200 µg/mL | – | – |
| O=c1oc2cc(O)c(/N=C/c3ccc([N+](=O)[O-])cc3)cc2s1 [Compound 4b, (E)-6-Hydroxy-5-(4-nitrobenzylideneamino)benzo[d][1,3]oxathiol-2-one] | 223 to 224 °C | > 10 µM | < 5 µM | > 10 µM | > 200 µg/mL | 4.8 µM | – |
